Test results from article PMC5717258, “Bioaccumulation of pharmaceuticals and personal care product chemicals in fish exposed to wastewater effluent in an urban wetland” (Scientific Reports, 2017).
Read-outs that look alike come from different tables or passages of the source.

Tests used:
[1] = Protocol: (§1) Plasma from 9 individual male fish (500 µL/individual) was pooled to yield 3 samples for PPCP analysis. […] Plasma from 6 individual carp (2.3–3.5 g) from each location was selected for PPCP analysis. […] Plasma samples were frozen (−80 °C) until analysis.
(§2) A total of 20 fish plasma samples from the pooled caged fish (7) and the wild fish (13) along with 12 water samples were selected for analysis. […] A full list of analytes is provided in Supplementary Information. Mass labelled^13C-, or deuterated surrogate internal standards were used for quantification of all analytes via the isotope dilution/surrogate standard quantitation method. Prior to extraction and/or clean-up procedures, aqueous samples were adjusted to pH 2.0, spiked with extraction surrogate standards, then adjusted to pH 4 using tetrasodium ethylenediamine-tetraacetate dihydrate. Plasma samples (2.3–2.5 g) were spiked with extraction surrogate standards, sonicated with 20 mL acetonitrile, then diluted with ultra-pure water to 200 mL. The extracts were cleaned up by solid phase extraction using Oasis HLB cartridges (Waters Ltd. Mississauga ON), filtered, and analyzed by liquid chromatography-electrospray ionization-tandem mass spectrometry (LC/ESI-MS/MS) in positive or negative ionization mode. The analysis of the complete list of analytes (SI Table S1) required a total of five instrumental runs.

[2] = remark: listed apart in the source
Protocol: as §1, §2
(§3) Quality assurance steps included analysis of lab blanks for water and plasma along with matrix recovery spikes. […] Detection limits (DLs) were defined as lowest calibration level adjusted to the maximal sample size or 3 times the signal of the noise in the target channel converted to an equivalent sample, whichever was greater. […] Where analytes were detected in two or more samples of the same species or series of water samples, non-detect values were converted to ½ the DL value for reporting purposes.

[3] = Table S7; ref Meador et al. (2016); cited from earlier work
in vivo = details: goldfish (Carassius auratus), in vivo
From the text: Cages were visited weekly, and fish (13/cage) were fed during the visits (20 g/cage). All animal experiments were in accordance with CCAC guidance and approved by the GLLFAS-WSTD Animal Care Committee (Government of Canada). Further details on the caging and preparation of the fish and animal care protocols are provided in Simmons et al.[32]. […] A fourth site, Jordan Harbour (JH), a widening of 20 Mile Creek adjacent to Lake Ontario near Jordan ON, served as a reference site. Mass and fork length were measured and recorded. Plasma collection and storage is described in the SI. Plasma of caged goldfish was divided for proteome, metabolome and PPCP analysis. Due to limited volumes, pooled samples of plasma from 25 individual fish (50 µL/individual) was pooled to yield one sample from at each location for PPCP analysis.
as §2, §3

[4] = Table S7; ref Meador et al. (2016); cited from earlier work; remark: listed apart in the source
[5] = Plasma bioaccumulation factor (BAFP), goldfish; assay type: in vivo, goldfish (Carassius auratus); details: CPM2; water sample of August 2012
Protocol: Bioaccumulation factor (BAFP) was calculated as concentration in fish plasma (ng/g × 1000) divided by concentration in water (ng/L). Two widely used modeling approaches for predicting organic contaminant bioaccumulation were assessed: the BCF-BAF model for whole body BAFs[53] and the fish-plasma concentration calculation of Huggett et al.[35] modified by Berninger et al.[54]. The latter involves estimating an octanol-water partition coefficient (Kow) adjusted for fraction ionized (log D), using the pKa value to adjust log Kow[54] taking into account the pH of CPM waters. Further information on the calculation of log D, blood-water partitioning (PBW), and plasma concentrations (FPC) is given in the SI.

[6] = Jordan Harbour brown bullhead, wet weight
[7] = Jordan Harbour carp 54, Nov 7, 2011, male, wet weight
[8] = Jordan Harbour carp 73, Nov 7, 2011, female, wet weight
[9] = Jordan Harbour carp 74, Nov 7, 2011, male, wet weight
[10] = Jordan Harbour carp 75, Nov 7, 2011, female, wet weight
[11] = Jordan Harbour carp 78, Nov 7, 2011, male, wet weight
[12] = Jordan Harbour carp 82, Nov 7, 2011, female, wet weight
[13] = carp (Cyprinus carpio), in vivo
[14] = female, carp (Cyprinus carpio), in vivo
[15] = male, carp (Cyprinus carpio), in vivo
[16] = male, goldfish (Carassius auratus), in vivo

## CC(C(=O)O)c1ccc(CC(C)(C)O)cc1 (stereo not drawn) [2-Hydroxy-ibuprofen]
[1]; [6]
  plasma concentration, JH-BB: < 30.4 ng/g
[2]; Cootes carp 01, 2011, male, wet weight
  plasma concentration, CPM-C 01: < 16.9 ng/g
[2]; Cootes carp 2, Sep 27, 2011, male, wet weight
  plasma concentration, CPM-C 2: < 23 ng/g
[2]; Cootes carp 10, Sep 28, 2011, female, wet weight
  plasma concentration, CPM-C 10: < 24.2 ng/g
[2]; Cootes carp 13, Sep 28, 2011, female, wet weight
  plasma concentration, CPM-C 13: < 24.9 ng/g
[2]; Cootes carp 20, 2011, male, wet weight
  plasma concentration, CPM-C 20: < 17.2 ng/g
[2]; Cootes carp 36, Oct 3, 2011, female, wet weight
  plasma concentration, CPM-C 36: < 22.9 ng/g
[2]; [7]
  plasma concentration, JH-C 54: < 16.9 ng/g
[2]; [8]
  plasma concentration, JH-C 73: < 16.5 ng/g
[2]; [9]
  plasma concentration, JH-C 74: < 17 ng/g
[2]; [10]
  plasma concentration, JH-C 75: < 24.1 ng/g
[2]; [11]
  plasma concentration, JH-C 78: < 38.5 ng/g
[2]; [12]
  plasma concentration, JH-C 82: 17 ng/g

## Cn1c(=O)c2c(ncn2C)n(C)c1=O [Caffeine]
[1]; [6]
  plasma concentration, JH-BB: < 5.7 ng/g
[3]
  Salmon (whole body) concentration: 18 ng/g
In vivo; plasma concentration, CPM1 caged, CPM1, 07-2014, pooled plasma, wet weight
  concentration at 21 days: 3.38 ng/g
In vivo; plasma concentration, CPM2 caged, CPM2, 07-2014, pooled plasma, wet weight
  concentration at 21 days: 1.46 ng/g
In vivo; plasma concentration, CPM3 caged, CPM3, 07-2014, pooled plasma, wet weight
  concentration at 21 days: 1.53 ng/g
In vivo; plasma concentration, JH caged, Jordan Harbour reference site, 07-2014, pooled plasma, wet weight
  concentration at 21 days: < 3 ng/g
[2]; [7]
  plasma concentration, JH-C 54: < 3.18 ng/g
[2]; [8]
  plasma concentration, JH-C 73: < 3.09 ng/g
[2]; [9]
  plasma concentration, JH-C 74: < 3.19 ng/g
[2]; [10]
  plasma concentration, JH-C 75: < 4.52 ng/g
[2]; [11]
  plasma concentration, JH-C 78: < 3.13 ng/g
[2]; [12]
  plasma concentration, JH-C 82: < 3.01 ng/g
[2]; wild goldfish sample 02, 2012, wet weight
  plasma concentration, CPM wild-02: 1.525 ng/g
[2]; wild goldfish sample 03, 2012, wet weight
  plasma concentration, CPM wild-03: 1.565 ng/g
[4]
  Sculpin (whole body) concentration: 13 ng/g

## CC1CCc2cc(F)cc3c(=O)c(C(=O)O)cn1c23 (stereo not drawn) [Flumequine]
[1]; Brown Bullhead (Ameiurus nebulosus), in vivo
  plasma concentration, JH-BB: 0.622 ng/g
[5]
  BAFP, CPM2 goldfish caged: 38 L/kg
In vivo; caged goldfish plasma, range of concentrations
  concentration at 21 days: 0.16 to 1.37 ng/g
In vivo; plasma concentration, CPM1 caged
  concentration at 21 days: 1.1 ng/g
In vivo; plasma concentration, CPM2 caged
  concentration at 21 days: 0.146 ng/g
In vivo; plasma concentration, CPM3 caged
  concentration at 21 days: 0.344 ng/g
In vivo; plasma concentration, JH caged
  concentration at 21 days: < 0.3 ng/g
[2]; [13]
  Cootes carp plasma, range of concentrations: 0.16 to 1.23 ng/g
  plasma concentration, carp, this study (mean): 0.70 ng/g wet weight or ng/mL for plasma
[2]; [14]
  plasma concentration, CPM-C 10: 1.23 ng/g
  plasma concentration, CPM-C 13: 1.14 ng/g
  plasma concentration, CPM-C 36: 0.698 ng/g
  plasma concentration, JH-C 73: 0.155 ng/g
  plasma concentration, JH-C 75: 0.474 ng/g
  plasma concentration, JH-C 82: 0.151 ng/g
[2]; [15]
  plasma concentration, CPM-C 01: 0.158 ng/g
  plasma concentration, CPM-C 2: 0.799 ng/g
  plasma concentration, CPM-C 20: 0.162 ng/g
  plasma concentration, JH-C 54: 0.159 ng/g
  plasma concentration, JH-C 74: 0.160 ng/g
  plasma concentration, JH-C 78: 0.252 ng/g
[2]; [16]
  plasma concentration, CPM wild-01: 1.37 ng/g
  plasma concentration, CPM wild-02: 0.188 ng/g
  plasma concentration, CPM wild-03: 0.157 ng/g
  plasma concentration, goldfish, this study (mean): 0.57 ng/g wet weight or ng/mL for plasma
  wild goldfish plasma, range of concentrations: 0.15 to 1.1 ng/g
